Data reported in patent publication US11000491B2, “Amino-aryl-benzamide compounds and methods of use thereof” (HEPANOVA, INC., priority 2017, dated 2021).
Where two headings read alike, the source gives them in different places.

Assays:
Assay type in all cases: cell-based
Huh7 cells = assay: LD content in Huh7 cells pre-treated with insulin, Oil-Red-O staining, absorbance OD 540 nm; details: procedure of Example 3, read-out: LD content inhibition (EC50)
In short: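 Huh7 cells, mock-treated or pre-treated with 1 mM insulin, were then exposed to compound at the indicated amounts. Lipid droplets stained with Oil Red O and quantified by absorbance at OD 540 nm.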

SREBP-1 = SREBP-1 expression in cultured primary human hepatocytes; details: procedure of Example 6, read-out: SREBP-1 mRNA inhibition (EC50)
In short: (§1)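 Primary human hepatocytes in culture exposed to a range of HPN-01 derivative concentrations; SREBP-1 and SREBP-2 mRNA expression then measured to assess inhibition.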

SREBP-2 = SREBP-2 expression in cultured primary human hepatocytes; details: procedure of Example 6, read-out: SREBP-2 mRNA inhibition (EC50)
In short: as §1

[1] = Homo sapiens, Huh-7, Huh7 cells

Row | Compound | EC50 (Huh7 cells; [1]) [nM] | EC50 (SREBP-1; Homo sapiens, Hepatocyte) [nM] | EC50 (SREBP-2; Homo sapiens, Hepatocyte) [nM] | EC50 (Huh7 cells; Huh7 cells) [nM] | EC50 (SREBP-1) [nM] | EC50 (SREBP-2) [nM]
1 | CCCNC(=O)c1cc(-c2ccc(Br)cc2)cc(-c2ccc(S(N)(=O)=O)cc2)c1N [HPN-01604, 4′-amino-4-bromo-N-propyl-4″-sulfamoyl-[1, 1′:3′,1″-terphenyl]-5′-carboxamide] | 1140 | 1950 | 5710 | – | – | –
2 | (E)-2-amino-5-(3-((4-methoxyphenyl)amino)-3-oxoprop-1-en-1-yl)-4′-sulfamoyl-[1,1′-biphenyl]-3-carboxamide [HPN-01128] | – | – | – | 890 | 2400 | 3470
3 | NC(=O)c1cc(-c2ccc(Cl)cc2)cc(Nc2cccc(S(N)(=O)=O)c2)c1N [HPN-01413, 4-amino-4′-chloro-5-((3-sulfamoylphenyl)amino)-[1,1′-biphenyl]-3-carboxamide] | 740 | 1520 | 2700 | – | – | –
4 | NC(=O)c1cc(-c2ccc(Cl)cc2)cc(-c2ccc(S(N)(=O)=O)cc2)c1NC(=O)CO [HPN-01502, 4-chloro-4′-(2-hydroxyacetamido)-4″-sulfamoyl-[1,1′:3′,1″-terphenyl]-5′-carboxamide] | 790 | 1650 | 2300 | – | – | –
5 | NC(=O)c1cc(-c2ccc(Cl)cc2)cc(Sc2ccc(S(N)(=O)=O)cc2)c1N [HPN-01403] | – | – | – | 360 | 1960 | 3090
6 | NC(=O)c1cc(C#CCOC(=O)c2ccccn2)cc(-c2ccc(S(N)(=O)=O)cc2)c1N [HPN-01221, 3-(6-amino-5-carbamoyl-4′-sulfamoyl-[1,1′-biphenyl]-3-yl)prop-2-yn-1-yl picolinate] | 770 | 1670 | 3470 | – | – | –
7 | (E)-2-amino-5-(3-((4-fluorophenethyl)amino)-3-oxoprop-1-en-1-yl)-4′-sulfamoyl-[1,1′-biphenyl]-3-carboxamide [HPN-01132] | – | – | – | 70 | 360 | 1550
8 | NC(=O)c1cc(-c2ccc(Cl)cc2)cc(Nc2ccc(S(N)(=O)=O)cc2)c1N [HPN-01402, 4-amino-4′-chloro-5-((4-sulfamoylphenyl)amino)-[1,1′-biphenyl]-3-carboxamide] | 600 | 1180 | 2500 | – | – | –
